According to patent US6475724B1, “Nucleic acids, kits, and methods for the diagnosis, prognosis and treatment of glaucoma and related disorders” (The Regents of the University of California, priority 1997, dated 2002):
“Also recorded” adds a separate entry of the source.

Experiments:
[1] = IOP response to topical dexamethasone eye drops, Armaly criteria; type: in vivo, human; details: topical dexamethasone eye drops (0.1%) four times a day for four weeks; one line per subject (subjects 1-7); pre- vs post-treatment IOP
Method: Subjects are given standard topical dexamethasone eye drops (0.1%) four times a day, for four weeks. Pre-treatment and post-treatment IOP readings are taken and patients are classified as having high (>16 mmHg), intermediate (6-16 mmHg) or low (<6 mmHg) IOP responses under the “Armaly” criteria. DNA samples are obtained from four subjects having high or intermediate IOP changes. Samples from several non-responder patients were also taken. The DNA samples were analyzed for the presence of the TIGRmt11 variant sequence, as discussed above.

TIGR gene = test: Induction of the TIGR gene by stress stimulants; type: cell-based
HTM cells = test: TIGR 5′ region/promoter AP reporter activity in HTM cells; type: cell-based, human; details: attached reporter gene
Method: The 283 base 5′ fragment of the TIGR 5′ region (SEQ ID NO: 37) is amplified from genomic DNA of a normal human subject as discusssed in Example 3. The DNA is cloned into a pSEAP vector (Clontech, Calif.) so that transcription was under the control of the TIGR sequences. More specifically, pSEAP2-enhancer vector is digested with Srfl to produce a blunt end. The 283 bp fragment is blunt end ligated to the vector using T4 ligase for 2 hours. The vector is transfected into DH5 cells to establish a plasmid clone, TMRE-1/pSEAP. PCR sequencing is used to verify the clone sequence as correct. Similarly, the equivalent genomic fragment amplified from a steroid responder sample, identified as mutant TIGR.mt11, is cloned in pSEAP2-enhancer and called clone TIGR.mt11/pSEAP.
HTM cells, Cos cells (COS-7), and HeLa cells (HeLa 229) are seeded at 10^6 cells per well and incubated with 1 ug of the plasmid DNA to transfect using Lipofectin reagent (GIBCO, Life Technologies, Md.). Some samples of cells were also treated with dexamethasone (DEX). Then, 24, 48, and 72 hours after transfection, AP activity was measured. Cells are collected using a buffer containing L-homoarginine and the chemiluminescent substrate CSPD and a chemiluminescent enhancer added to the samples. The expression levels are then recorded using a luminometer or by brief exposure to X-ray film. […]

Question: Which “CS-IOP Response” value [1] does the source give for C[C@@H]1C[C@H]2[C@@H]3CCC4=CC(=O)C=C[C@]4(C)[C@@]3(F)[C@@H](O)C[C@]2(C)[C@@]1(O)C(=O)CO [dexamethasone] here?
Answer: The value was “Low (low (<6 mmHg)); also recorded: Intermediate (intermediate (6-16 mmHg)); also recorded: High (high (>16 mmHg))”.

Question: With CCCCCCCCCCCCCC(=O)O[C@@H]1[C@@H](C)[C@@]2(O)[C@@H](C=C(CO)C[C@]3(O)C(=O)C(C)=C[C@@H]23)[C@H]2C(C)(C)[C@]12OC(C)=O [TPA, 12-O-tetradecanolyphorbol-13-acetate] as the molecule, how does the “induction of TIGR gene” value (TIGR gene) read?
Answer: The value was “induced”.

Question: For OO [H2O2], which “induction of TIGR gene” value (TIGR gene) is on record?
Answer: Its value is “induced”.

B1: SEQ ID NO: 37: 283 bp region from 5340 to 5044 of SEQ ID NO: 3, TIGR 5′ regulatory region (nucleic acid, listed as Homo sapiens)
DNA: AACTATTATTGGGGTATGGGTGCATAAATTGGGATGTTCTTTTTAAAAAGAAACTCCAAACAGACTTCTGGAAGGTTATTTTCTAAGAATCTTGCTGGCAGCGTGAAGGCAACCCCCCTGTGCACAGCCCCACCCAGCCTCACGTGGCCACCTCTGTCTTCCCCCATGAAGGGCTGGCTCCCCAGTATATATAAACCTCTCTGGAGCTCGGGCATGAGCCAGCAAGGCCACCCATCCAGGCACCTCTCAGCACAGCAGAGCTTTCCAGAGGAAGCCTCACCAA
Question: With B1 as the molecule, how does the “expression of AP activity, HTM cells compared with HeLa or Cos cells” value (HTM cells) read?
Answer: Its value is “much higher”.
